Assay [1] deals with Angiopoietin-1 receptor (Homo sapiens) (UniProt Q02763). The assay can be described thus: (§1) Selectivity interaction (ProQinase) EUB0000171b TEK.
For assay [2], the system named is Angiopoietin-1 receptor (Homo sapiens), Q02763 [R849W]. The assay is described as §1.
Assay [3] relates to Angiopoietin-1 receptor (Homo sapiens), Q02763 [Y897S]. Described as §1.
For assay [4], the target named is T1, cGMP-dependent protein kinase 2 (Homo sapiens) (UniProt Q13237).
T1 sequence (whole entry): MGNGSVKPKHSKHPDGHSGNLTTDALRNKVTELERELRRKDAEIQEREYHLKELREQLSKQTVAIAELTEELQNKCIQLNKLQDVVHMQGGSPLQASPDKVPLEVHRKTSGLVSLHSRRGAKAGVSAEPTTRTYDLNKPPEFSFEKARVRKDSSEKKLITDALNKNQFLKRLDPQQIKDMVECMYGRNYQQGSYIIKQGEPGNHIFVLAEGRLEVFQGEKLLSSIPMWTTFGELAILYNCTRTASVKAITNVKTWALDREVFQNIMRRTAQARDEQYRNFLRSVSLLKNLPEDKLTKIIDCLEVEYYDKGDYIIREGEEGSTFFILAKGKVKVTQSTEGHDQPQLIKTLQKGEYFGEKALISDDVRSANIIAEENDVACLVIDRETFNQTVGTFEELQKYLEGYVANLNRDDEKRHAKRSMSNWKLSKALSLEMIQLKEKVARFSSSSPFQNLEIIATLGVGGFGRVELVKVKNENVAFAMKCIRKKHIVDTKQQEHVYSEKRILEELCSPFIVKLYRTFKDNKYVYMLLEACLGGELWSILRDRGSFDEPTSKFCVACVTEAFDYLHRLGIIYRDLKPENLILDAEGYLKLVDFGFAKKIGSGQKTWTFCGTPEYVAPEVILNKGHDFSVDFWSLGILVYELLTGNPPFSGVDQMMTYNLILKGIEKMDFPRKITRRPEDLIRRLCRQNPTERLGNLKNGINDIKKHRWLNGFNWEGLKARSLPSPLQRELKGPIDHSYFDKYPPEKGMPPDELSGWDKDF
Put plainly: Selectivity interaction (KinomeScan (DiscoverX)) EUB0001049a PRKG2. To be noted: at 1 µM.

Assay [5] concerns the target Sodium-dependent noradrenaline transporter (Homo sapiens, UniProt P23975). Put plainly: Selectivity interaction (Eurofins CEREP Diversity Profile (receptors and ion channels)) EUB0000279b SLC6A2. To be noted: at 10 µM.
Assay [6] has as its target Histone-lysine N-methyltransferase 2A (Homo sapiens) (UniProt Q03164). To be noted: at 10 µM.
The target in assay [7] is T2, Homeodomain-interacting protein kinase 4 (Homo sapiens) (UniProt Q8NE63).
T2 sequence (whole entry): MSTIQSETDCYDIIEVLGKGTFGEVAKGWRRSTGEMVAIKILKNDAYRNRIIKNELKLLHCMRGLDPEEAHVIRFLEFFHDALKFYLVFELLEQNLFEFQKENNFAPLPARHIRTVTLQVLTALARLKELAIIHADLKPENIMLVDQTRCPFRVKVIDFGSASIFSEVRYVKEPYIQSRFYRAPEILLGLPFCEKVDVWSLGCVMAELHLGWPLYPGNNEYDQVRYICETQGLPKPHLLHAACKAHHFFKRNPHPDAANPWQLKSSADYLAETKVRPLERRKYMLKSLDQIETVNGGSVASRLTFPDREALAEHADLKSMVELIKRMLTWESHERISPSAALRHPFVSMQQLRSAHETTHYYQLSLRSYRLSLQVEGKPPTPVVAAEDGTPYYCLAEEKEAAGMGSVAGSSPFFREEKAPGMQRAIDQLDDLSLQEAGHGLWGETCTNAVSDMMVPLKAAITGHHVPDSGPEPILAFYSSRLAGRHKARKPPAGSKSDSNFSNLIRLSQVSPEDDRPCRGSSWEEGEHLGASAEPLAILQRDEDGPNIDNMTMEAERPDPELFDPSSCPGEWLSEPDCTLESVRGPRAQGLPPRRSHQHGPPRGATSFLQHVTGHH
Put plainly: Selectivity interaction (KinomeScan (DiscoverX)) EUB0000595a HIPK4. To be noted: at 10 µM.

The target in assay [8] is T3, Serine/threonine-protein kinase TBK1 (Homo sapiens) (UniProt Q9UHD2).
T3 sequence (whole entry): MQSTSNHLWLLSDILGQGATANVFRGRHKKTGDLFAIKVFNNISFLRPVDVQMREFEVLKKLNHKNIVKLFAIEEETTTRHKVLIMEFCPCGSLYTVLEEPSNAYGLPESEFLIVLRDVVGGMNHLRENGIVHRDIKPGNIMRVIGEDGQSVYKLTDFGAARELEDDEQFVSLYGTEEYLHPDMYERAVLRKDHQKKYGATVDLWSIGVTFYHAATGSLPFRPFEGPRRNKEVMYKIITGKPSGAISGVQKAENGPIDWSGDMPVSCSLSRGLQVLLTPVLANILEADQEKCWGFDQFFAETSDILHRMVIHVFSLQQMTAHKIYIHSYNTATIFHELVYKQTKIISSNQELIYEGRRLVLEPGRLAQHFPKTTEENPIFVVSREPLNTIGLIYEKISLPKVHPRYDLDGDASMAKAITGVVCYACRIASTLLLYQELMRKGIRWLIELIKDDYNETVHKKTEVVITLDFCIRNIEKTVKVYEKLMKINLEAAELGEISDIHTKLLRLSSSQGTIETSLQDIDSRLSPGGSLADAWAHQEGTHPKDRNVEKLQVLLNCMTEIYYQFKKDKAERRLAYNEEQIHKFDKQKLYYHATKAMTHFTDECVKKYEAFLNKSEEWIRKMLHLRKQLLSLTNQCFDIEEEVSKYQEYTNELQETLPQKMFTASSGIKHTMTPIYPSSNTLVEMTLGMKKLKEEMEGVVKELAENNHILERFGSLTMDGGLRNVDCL
The assay can be described thus: Selectivity interaction (KinomeScan (DiscoverX)) EUB0000595a TBK1. The settings on record: at 10 µM.

Assay [9] has as its target BMP-2-inducible protein kinase (Homo sapiens) (UniProt Q9NSY1). Put plainly: Selectivity interaction (KinomeScan (DiscoverX)) EUB0000618a BMP2K. To be noted: at 10 µM.

Some results are limits rather than exact numbers.

Sequence of Angiopoietin-1 receptor (Homo sapiens) (Q02763 whole entry): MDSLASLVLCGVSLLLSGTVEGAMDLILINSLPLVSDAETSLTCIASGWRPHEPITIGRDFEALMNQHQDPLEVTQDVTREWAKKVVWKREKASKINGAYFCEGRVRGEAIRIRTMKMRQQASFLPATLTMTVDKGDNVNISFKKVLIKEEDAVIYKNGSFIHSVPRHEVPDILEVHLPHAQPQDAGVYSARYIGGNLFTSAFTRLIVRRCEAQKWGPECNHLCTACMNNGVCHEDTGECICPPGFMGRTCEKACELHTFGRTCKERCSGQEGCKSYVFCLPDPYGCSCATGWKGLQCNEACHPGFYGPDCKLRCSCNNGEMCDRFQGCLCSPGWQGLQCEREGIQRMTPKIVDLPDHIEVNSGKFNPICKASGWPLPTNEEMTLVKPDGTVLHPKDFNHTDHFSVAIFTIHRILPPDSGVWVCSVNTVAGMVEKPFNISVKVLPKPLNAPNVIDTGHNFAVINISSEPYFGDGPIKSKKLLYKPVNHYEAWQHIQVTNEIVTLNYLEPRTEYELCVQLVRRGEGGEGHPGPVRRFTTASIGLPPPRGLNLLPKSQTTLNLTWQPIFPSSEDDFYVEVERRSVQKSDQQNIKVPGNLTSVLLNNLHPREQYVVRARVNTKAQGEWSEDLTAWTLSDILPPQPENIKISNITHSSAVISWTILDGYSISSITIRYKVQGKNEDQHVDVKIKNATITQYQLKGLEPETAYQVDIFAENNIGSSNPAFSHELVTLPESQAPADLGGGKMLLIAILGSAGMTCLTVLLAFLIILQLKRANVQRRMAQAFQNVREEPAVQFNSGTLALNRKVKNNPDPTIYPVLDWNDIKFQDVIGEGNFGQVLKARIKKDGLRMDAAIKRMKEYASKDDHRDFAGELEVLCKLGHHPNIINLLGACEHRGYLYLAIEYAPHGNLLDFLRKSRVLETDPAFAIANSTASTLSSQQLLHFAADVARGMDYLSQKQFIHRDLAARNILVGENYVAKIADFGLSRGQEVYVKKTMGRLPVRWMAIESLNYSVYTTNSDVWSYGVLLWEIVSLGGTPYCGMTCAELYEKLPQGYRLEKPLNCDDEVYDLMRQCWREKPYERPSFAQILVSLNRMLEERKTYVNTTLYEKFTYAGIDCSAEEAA
Sequence of Angiopoietin-1 receptor (Homo sapiens), Q02763 [Y897S] (Q02763 whole entry Y897S): as the sequence (Q02763 whole entry) above, with Y897S counted along it
Sequence of Angiopoietin-1 receptor (Homo sapiens), Q02763 [R849W] (Q02763 whole entry R849W): as the sequence (Q02763 whole entry) above, with R849W counted along it
Sequence of Sodium-dependent noradrenaline transporter (P23975 whole entry): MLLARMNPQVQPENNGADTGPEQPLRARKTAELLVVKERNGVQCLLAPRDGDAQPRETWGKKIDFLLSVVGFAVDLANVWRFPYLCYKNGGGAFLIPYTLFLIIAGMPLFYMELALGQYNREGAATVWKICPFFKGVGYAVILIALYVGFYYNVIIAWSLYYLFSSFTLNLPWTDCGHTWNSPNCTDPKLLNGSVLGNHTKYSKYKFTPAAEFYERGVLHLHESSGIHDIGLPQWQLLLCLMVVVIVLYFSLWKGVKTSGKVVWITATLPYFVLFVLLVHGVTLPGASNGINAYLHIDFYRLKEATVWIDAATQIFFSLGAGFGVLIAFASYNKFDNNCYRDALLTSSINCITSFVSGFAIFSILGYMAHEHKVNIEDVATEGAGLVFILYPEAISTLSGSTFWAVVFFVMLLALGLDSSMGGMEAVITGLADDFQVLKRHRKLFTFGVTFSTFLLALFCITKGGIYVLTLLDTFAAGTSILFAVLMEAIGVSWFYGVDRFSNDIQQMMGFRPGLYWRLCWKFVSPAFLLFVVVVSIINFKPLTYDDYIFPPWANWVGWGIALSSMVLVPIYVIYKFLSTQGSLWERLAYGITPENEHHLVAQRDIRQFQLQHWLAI
Sequence of BMP-2-inducible protein kinase (Homo sapiens) (Q9NSY1 whole entry, looked up): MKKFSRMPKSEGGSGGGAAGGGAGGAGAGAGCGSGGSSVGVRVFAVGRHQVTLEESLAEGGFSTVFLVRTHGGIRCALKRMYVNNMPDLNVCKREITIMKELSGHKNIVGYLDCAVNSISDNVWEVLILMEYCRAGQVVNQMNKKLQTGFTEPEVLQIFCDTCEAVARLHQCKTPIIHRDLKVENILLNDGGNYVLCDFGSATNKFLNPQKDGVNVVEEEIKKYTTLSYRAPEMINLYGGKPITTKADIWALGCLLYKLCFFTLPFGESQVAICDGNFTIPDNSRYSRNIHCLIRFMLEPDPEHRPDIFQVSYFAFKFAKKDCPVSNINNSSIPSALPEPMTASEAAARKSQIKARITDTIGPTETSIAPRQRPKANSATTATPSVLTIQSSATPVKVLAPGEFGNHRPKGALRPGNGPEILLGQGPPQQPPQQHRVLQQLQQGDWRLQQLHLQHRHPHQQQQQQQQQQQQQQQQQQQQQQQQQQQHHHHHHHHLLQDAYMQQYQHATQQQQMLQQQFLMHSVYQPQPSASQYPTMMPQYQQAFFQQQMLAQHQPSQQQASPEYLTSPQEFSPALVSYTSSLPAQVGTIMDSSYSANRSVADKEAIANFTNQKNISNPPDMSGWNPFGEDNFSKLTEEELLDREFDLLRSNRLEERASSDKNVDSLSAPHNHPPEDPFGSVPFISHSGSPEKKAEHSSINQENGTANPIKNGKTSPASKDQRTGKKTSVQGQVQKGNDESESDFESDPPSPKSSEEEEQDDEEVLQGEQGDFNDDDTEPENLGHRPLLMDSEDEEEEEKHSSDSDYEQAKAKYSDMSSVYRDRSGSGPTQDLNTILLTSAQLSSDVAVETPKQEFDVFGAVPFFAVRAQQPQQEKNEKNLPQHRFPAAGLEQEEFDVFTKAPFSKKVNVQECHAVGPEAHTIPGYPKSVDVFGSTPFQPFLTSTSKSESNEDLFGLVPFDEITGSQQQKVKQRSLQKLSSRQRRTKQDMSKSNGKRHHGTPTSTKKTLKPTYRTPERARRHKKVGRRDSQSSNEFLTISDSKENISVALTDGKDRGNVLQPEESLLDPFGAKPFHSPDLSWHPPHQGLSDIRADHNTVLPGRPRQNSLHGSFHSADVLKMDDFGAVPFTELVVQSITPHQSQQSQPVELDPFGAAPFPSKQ

Take `C=CC(=O)Nc1cccc(C(=O)Nc2ccc(Nc3cc(-c4[nH]c(SC)nc4C)ccn3)cc2)c1`: the % of control in [1] (at 1 µM) was 85%; in assay [1] (at 5 µM), 81%; in [2] (at 1 µM), 92%; in [2] (at 5 µM), 107%; in [3] (at 1 µM), 85%; in assay [3] (at 5 µM), 85%.

In assay [4], `COc1cc(Nc2nc(C)cc(-c3cnn4nc(OC)ccc34)n2)cc(C(F)(F)F)c1` showed a % of control of 70%.

Regarding `CC(=O)c1cc(-c2ccccc2OCC2CC2)c2ncccn12`, the % of control in assay [5] came to 90%.

As for `CNCCN1CCC(c2cc(CN(C)C(=O)c3cccc(Oc4ccccc4)c3)ccn2)CC1`, in [6], the % activity is > 90%.

On to `COCC(=O)NC/C=C/c1ccc2ncnc(Nc3ccc(Oc4ccc(C)nc4)c(C)c3)c2c1` [CP-724714], for which the results for the % of control in assay [7] and in [8] were 95% and 90%, respectively.

Regarding `O[C@H]1CC[C@H](Nc2ncc3nc(Nc4c(F)cc(F)cc4F)n([C@H]4CCOC4)c3n2)CC1`, the % of control in assay [9] was determined as 100%.

(Values after ChEMBL document CHEMBL5465560, “Selectivity Literature for EUbOPEN Chemogenomic Library” (2024).)
